Test results taken from PMC5078040 (Oncotarget, 2016).

What was measured:
[1] = target: T1, ABL1(E255K)-phosphorylated (Homo sapiens, UniProt P00519, E255K); assay: KinomeScan; assay type: binding; conditions: 1uM
T1 construct: purchased DiscoveRx KINOMEscan

[2] = target: T2, ABL1(F317I)-phosphorylated (Homo sapiens, UniProt P00519, F317I); assay: KinomeScan; assay type: binding; conditions: 1uM
T2 construct: purchased DiscoveRx KINOMEscan

ACVR1 = target: T3, ACVR1 (Homo sapiens, UniProt Q04771); assay: KinomeScan; assay type: binding; conditions: 1uM
T3 construct: purchased DiscoveRx KINOMEscan

ACVRL1 = target: T4, ACVRL1 (Homo sapiens, UniProt P37023); assay: KinomeScan; assay type: binding; conditions: 1uM
T4 construct: purchased DiscoveRx KINOMEscan
T4 sequence (P37023 22-503): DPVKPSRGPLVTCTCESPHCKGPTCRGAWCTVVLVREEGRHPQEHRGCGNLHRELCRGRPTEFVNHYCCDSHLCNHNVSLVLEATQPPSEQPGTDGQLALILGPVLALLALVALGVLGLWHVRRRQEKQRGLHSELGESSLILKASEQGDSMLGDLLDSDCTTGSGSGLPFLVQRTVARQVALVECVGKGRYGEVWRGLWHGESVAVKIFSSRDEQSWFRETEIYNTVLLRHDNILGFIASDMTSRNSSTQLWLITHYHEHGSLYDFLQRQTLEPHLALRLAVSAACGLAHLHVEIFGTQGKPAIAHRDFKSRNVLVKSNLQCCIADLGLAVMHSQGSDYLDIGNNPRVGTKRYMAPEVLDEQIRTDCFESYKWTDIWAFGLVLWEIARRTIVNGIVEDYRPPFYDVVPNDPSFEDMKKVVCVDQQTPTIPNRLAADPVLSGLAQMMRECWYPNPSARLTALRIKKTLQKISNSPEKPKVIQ

CDC2L5 = target: T5, CDC2L5 (Homo sapiens, UniProt Q14004); assay: KinomeScan; assay type: binding; conditions: 1uM
T5 construct: purchased DiscoveRx KINOMEscan

CSNK1D = target: T6, CSNK1D (Homo sapiens, UniProt P48730); assay: KinomeScan; assay type: binding; conditions: 1uM
T6 construct: purchased DiscoveRx KINOMEscan

CSNK1E = target: T7, CSNK1E (Homo sapiens, UniProt P49674); assay: KinomeScan; assay type: binding; conditions: 1uM
T7 construct: purchased DiscoveRx KINOMEscan

DYRK1B = target: T8, DYRK1B (Homo sapiens, UniProt Q9Y463); assay: KinomeScan; assay type: binding; conditions: 1uM
T8 construct: purchased DiscoveRx KINOMEscan

[3] = target: T9, EGFR(L747-E749del, A750P) (Homo sapiens, UniProt P00533, A750P/DEL747-749); assay: KinomeScan; assay type: binding; conditions: 1uM
T9 construct: purchased DiscoveRx KINOMEscan

EGFR(L861Q) = target: T10, EGFR(L861Q) (Homo sapiens, UniProt P00533, L861Q); assay: KinomeScan; assay type: binding; conditions: 1uM
T10 construct: purchased DiscoveRx KINOMEscan

EPHA1 = target: T11, EPHA1 (Homo sapiens, UniProt P21709); assay: KinomeScan; assay type: binding; conditions: 1uM
T11 construct: purchased DiscoveRx KINOMEscan

EPHA4 = target: T12, EPHA4 (Homo sapiens, UniProt P54764); assay: KinomeScan; assay type: binding; conditions: 1uM
T12 construct: purchased DiscoveRx KINOMEscan

FGFR4 = target: T13, FGFR4 (Homo sapiens, UniProt P22455); assay: KinomeScan; assay type: binding; conditions: 1uM
T13 construct: purchased DiscoveRx KINOMEscan

FGR = target: T14, FGR (Homo sapiens, UniProt P09769); assay: KinomeScan; assay type: binding; conditions: 1uM
T14 construct: purchased DiscoveRx KINOMEscan

FLT3(ITD) = assay: KinomeScan; assay type: binding; conditions: 1uM
FLT3(K663Q) = target: T15, FLT3(K663Q) (Homo sapiens, UniProt P36888, K663Q); assay: KinomeScan; assay type: binding; conditions: 1uM
T15 construct: purchased DiscoveRx KINOMEscan

FLT3(N841I) = target: T16, FLT3(N841I) (Homo sapiens, UniProt P36888, N841I); assay: KinomeScan; assay type: binding; conditions: 1uM
T16 construct: purchased DiscoveRx KINOMEscan

FLT3-autoinhibited = target: T17, FLT3-autoinhibited (Homo sapiens, UniProt P36888); assay: KinomeScan; assay type: binding; conditions: 1uM
T17 construct: purchased DiscoveRx KINOMEscan

KIT(D816H) = target: T18, KIT(D816H) (Homo sapiens, UniProt P10721, D816H); assay: KinomeScan; assay type: binding; conditions: 1uM
T18 construct: purchased DiscoveRx KINOMEscan

MAP3K15 = target: T19, MAP3K15 (Homo sapiens, UniProt Q6ZN16); assay: KinomeScan; assay type: binding; conditions: 1uM
T19 construct: purchased DiscoveRx KINOMEscan

MAPKAPK2 = target: T20, MAPKAPK2 (Homo sapiens, UniProt P49137); assay: KinomeScan; assay type: binding; conditions: 1uM
T20 construct: purchased DiscoveRx KINOMEscan
T20 sequence (P49137 whole entry): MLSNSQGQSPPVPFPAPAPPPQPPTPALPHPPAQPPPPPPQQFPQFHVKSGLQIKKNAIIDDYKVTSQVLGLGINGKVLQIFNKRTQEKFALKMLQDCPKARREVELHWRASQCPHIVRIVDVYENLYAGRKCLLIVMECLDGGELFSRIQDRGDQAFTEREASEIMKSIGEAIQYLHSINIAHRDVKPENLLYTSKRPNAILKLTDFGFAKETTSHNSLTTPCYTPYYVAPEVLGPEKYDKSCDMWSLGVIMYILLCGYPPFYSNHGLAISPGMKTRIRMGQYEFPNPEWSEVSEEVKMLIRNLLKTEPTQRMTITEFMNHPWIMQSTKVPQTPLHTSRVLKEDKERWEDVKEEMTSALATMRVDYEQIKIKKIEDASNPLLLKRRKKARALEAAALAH

MRCKA = target: T21, MRCKA (Homo sapiens, UniProt Q5VT25); assay: KinomeScan; assay type: binding; conditions: 1uM
T21 construct: purchased DiscoveRx KINOMEscan
T21 sequence (Q5VT25 whole entry): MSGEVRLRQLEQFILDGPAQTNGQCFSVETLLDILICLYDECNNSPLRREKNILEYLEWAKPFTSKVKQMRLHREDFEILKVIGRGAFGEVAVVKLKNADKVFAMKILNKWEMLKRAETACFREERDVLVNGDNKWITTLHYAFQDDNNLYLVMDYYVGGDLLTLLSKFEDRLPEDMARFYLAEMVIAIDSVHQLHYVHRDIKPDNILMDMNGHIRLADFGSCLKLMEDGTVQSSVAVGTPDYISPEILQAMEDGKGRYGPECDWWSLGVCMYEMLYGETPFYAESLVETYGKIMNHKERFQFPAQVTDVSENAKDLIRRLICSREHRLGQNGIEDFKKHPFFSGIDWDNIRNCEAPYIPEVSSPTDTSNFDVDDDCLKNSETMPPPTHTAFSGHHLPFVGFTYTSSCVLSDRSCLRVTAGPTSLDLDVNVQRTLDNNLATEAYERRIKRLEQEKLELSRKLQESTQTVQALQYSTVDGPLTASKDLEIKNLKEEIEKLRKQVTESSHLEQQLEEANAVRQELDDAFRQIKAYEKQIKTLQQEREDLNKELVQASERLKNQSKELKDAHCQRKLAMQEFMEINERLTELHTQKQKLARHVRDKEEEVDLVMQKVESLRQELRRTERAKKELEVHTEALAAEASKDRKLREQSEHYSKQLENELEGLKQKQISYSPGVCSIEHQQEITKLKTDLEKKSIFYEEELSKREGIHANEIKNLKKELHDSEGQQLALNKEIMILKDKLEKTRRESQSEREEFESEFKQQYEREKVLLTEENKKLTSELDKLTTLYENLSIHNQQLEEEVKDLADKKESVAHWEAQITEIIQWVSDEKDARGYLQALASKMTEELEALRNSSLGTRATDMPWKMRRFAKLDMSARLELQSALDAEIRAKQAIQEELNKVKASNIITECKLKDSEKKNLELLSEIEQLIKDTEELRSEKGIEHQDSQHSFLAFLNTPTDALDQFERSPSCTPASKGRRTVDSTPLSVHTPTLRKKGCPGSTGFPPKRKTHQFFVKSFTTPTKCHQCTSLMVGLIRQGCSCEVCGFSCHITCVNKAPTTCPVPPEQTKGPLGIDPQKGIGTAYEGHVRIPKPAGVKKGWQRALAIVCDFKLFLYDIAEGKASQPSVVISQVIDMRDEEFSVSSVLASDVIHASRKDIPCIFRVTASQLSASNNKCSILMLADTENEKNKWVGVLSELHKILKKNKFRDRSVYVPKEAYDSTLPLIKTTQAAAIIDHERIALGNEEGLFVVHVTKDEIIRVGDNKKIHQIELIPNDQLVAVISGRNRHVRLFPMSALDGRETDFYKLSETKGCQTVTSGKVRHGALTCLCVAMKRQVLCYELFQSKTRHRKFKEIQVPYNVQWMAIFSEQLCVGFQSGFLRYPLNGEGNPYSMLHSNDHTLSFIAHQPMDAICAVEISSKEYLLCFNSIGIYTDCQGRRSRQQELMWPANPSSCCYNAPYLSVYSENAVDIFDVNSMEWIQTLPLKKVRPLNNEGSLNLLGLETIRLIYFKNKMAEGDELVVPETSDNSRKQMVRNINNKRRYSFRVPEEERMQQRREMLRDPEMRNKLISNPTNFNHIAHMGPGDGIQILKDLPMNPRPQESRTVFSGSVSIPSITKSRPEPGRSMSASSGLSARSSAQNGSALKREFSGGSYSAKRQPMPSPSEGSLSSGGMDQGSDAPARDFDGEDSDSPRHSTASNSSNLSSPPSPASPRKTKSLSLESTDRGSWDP

MST2 = target: T22, MST2 (Homo sapiens, UniProt Q13188); assay: KinomeScan; assay type: binding; conditions: 1uM
T22 construct: purchased DiscoveRx KINOMEscan

MST4 = target: T23, MST4 (Homo sapiens, UniProt Q9P289); assay: KinomeScan; assay type: binding; conditions: 1uM
T23 construct: purchased DiscoveRx KINOMEscan

MYLK4 = target: T24, MYLK4 (Homo sapiens, UniProt Q86YV6); assay: KinomeScan; assay type: binding; conditions: 1uM
T24 construct: purchased DiscoveRx KINOMEscan

p38-gamma = target: T25, p38-gamma (Homo sapiens, UniProt P53778); assay: KinomeScan; assay type: binding; conditions: 1uM
T25 construct: purchased DiscoveRx KINOMEscan
T25 sequence (P53778 whole entry): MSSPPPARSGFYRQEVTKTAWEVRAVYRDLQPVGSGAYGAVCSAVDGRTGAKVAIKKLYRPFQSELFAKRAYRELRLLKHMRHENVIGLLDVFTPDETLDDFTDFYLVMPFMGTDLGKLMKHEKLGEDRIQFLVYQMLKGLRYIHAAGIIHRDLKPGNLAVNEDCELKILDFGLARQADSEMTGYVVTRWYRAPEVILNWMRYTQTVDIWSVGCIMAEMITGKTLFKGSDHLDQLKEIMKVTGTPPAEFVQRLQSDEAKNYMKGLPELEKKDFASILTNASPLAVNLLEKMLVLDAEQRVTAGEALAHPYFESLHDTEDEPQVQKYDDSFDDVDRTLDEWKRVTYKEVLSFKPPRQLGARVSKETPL

PCTK3 = target: T26, PCTK3 (Homo sapiens, UniProt Q07002); assay: KinomeScan; assay type: binding; conditions: 1uM
T26 construct: purchased DiscoveRx KINOMEscan

PIK3C2B = target: T27, PIK3C2B (Homo sapiens, UniProt O00750); assay: KinomeScan; assay type: binding; conditions: 1uM
T27 construct: purchased Invitrogen

PIK3CA(H1047L) = target: T28, PIK3CA(H1047L) (Homo sapiens, UniProt P42336, H1047L); assay: KinomeScan; assay type: binding; conditions: 1uM
T28 construct: purchased DiscoveRx KINOMEscan

PIK3CB = target: T29, PIK3CB (Homo sapiens, UniProt P42338); assay: KinomeScan; assay type: binding; conditions: 1uM
T29 construct: purchased DiscoveRx KINOMEscan

PIK4CB = target: T30, PIK4CB (Homo sapiens, UniProt Q9UBF8); assay: KinomeScan; assay type: binding; conditions: 1uM
T30 construct: purchased DiscoveRx KINOMEscan

PRKR = target: T31, PRKR (Homo sapiens, UniProt P19525); assay: KinomeScan; assay type: binding; conditions: 1uM
T31 construct: purchased DiscoveRx KINOMEscan

PYK2 = target: T32, PYK2 (Homo sapiens, UniProt Q14289); assay: KinomeScan; assay type: binding; conditions: 1uM
T32 construct: purchased DiscoveRx KINOMEscan

[4] = target: T33, RSK2(Kin.Dom.2-C-terminal) (Homo sapiens, UniProt P51812); assay: KinomeScan; assay type: binding; conditions: 1uM
T33 construct: RSK2(Kin.Dom.2-C-terminal); purchased DiscoveRx KINOMEscan

SLK = target: T34, SLK (Homo sapiens, UniProt Q9H2G2); assay: KinomeScan; assay type: binding; conditions: 1uM
T34 construct: purchased DiscoveRx KINOMEscan

TAOK3 = target: T35, TAOK3 (Homo sapiens, UniProt Q9H2K8); assay: KinomeScan; assay type: binding; conditions: 1uM
T35 construct: purchased DiscoveRx KINOMEscan

TBK1 = target: T36, TBK1 (Homo sapiens, UniProt Q9UHD2); assay: KinomeScan; assay type: binding; conditions: 1uM
T36 construct: purchased DiscoveRx KINOMEscan

TRPM6 = target: T37, TRPM6 (Homo sapiens, UniProt Q9BX84); assay: KinomeScan; assay type: binding; conditions: 1uM
T37 construct: purchased DiscoveRx KINOMEscan
T37 sequence (Q9BX84 whole entry): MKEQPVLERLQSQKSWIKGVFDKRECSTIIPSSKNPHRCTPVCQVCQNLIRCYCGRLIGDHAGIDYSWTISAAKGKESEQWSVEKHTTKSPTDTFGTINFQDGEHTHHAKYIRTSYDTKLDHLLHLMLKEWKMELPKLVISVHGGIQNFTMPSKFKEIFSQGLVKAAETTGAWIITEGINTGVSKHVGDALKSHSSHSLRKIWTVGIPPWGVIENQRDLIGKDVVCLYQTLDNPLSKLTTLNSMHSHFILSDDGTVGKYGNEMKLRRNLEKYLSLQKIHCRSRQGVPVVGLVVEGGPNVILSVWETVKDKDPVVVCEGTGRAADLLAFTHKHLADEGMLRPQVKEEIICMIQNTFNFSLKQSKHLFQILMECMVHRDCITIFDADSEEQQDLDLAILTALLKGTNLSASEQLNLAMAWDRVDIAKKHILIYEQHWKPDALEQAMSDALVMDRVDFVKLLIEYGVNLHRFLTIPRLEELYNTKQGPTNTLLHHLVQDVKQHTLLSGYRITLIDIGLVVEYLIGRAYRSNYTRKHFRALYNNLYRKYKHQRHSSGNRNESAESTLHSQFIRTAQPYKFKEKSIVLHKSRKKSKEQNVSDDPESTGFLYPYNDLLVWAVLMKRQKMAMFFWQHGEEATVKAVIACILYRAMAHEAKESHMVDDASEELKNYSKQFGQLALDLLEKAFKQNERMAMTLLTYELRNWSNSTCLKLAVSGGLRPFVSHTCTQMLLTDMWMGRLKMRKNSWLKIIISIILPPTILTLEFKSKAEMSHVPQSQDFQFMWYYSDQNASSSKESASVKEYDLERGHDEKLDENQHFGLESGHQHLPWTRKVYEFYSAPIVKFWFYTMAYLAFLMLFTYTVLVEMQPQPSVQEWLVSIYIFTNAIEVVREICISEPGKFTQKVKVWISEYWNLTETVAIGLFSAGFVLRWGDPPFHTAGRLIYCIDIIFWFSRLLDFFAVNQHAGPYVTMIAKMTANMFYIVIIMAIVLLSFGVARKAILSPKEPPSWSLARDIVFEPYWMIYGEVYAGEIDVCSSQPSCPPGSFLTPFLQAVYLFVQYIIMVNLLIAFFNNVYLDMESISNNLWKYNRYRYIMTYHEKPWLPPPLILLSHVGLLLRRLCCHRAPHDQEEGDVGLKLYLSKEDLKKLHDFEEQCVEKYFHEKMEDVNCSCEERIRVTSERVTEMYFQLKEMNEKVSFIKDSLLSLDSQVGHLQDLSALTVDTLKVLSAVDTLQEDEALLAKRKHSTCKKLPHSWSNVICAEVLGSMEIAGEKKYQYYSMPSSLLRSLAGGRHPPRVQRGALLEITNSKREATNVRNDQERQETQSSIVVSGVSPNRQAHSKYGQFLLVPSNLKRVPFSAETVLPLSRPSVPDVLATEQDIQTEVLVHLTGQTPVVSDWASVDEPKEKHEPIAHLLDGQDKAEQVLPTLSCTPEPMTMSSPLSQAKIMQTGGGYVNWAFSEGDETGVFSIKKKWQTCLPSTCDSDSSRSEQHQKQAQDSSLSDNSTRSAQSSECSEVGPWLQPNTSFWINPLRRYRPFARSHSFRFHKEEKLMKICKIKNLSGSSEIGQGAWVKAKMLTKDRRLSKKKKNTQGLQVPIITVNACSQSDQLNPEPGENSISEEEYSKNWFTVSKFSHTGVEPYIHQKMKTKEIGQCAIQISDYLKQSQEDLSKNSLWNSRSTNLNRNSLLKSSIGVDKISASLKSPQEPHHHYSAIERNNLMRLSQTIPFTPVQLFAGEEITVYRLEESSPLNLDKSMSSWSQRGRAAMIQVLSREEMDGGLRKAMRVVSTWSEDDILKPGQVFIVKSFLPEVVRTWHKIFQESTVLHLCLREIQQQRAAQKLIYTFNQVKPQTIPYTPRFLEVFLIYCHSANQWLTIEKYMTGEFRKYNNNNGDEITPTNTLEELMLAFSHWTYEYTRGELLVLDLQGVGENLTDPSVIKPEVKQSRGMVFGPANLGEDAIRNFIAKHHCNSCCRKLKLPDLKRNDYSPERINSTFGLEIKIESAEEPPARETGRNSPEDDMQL

[5] = target: T38, TYK2(JH2domain-pseudokinase) (Homo sapiens, UniProt P29597); assay: KinomeScan; assay type: binding; conditions: 1uM
T38 construct: TYK2(JH2domain-pseudokinase); purchased DiscoveRx KINOMEscan

LC3B II = assay: Autophagy (western-blot); assay type: cell-based, human; conditions: 12 hours
Description: Cells were then washed in PBS and lysed in cell lysis buffer and detected by western-blot using LC3B, GAPDH antibody (Cell signaling Technology).

PI3Kγ = PI3Kγ (Homo sapiens, UniProt P48736); assay: biochemical
Description: The reaction in each tube was started immediately by adding ATP and kept going for an hour under 37°C. After the tube cooled for 5 minutes at room temperature, 5 μL solvent reactions were carried out in a 384-well plate. Then 5 μL of ADP-Glo™ reagent was added into each well to stop the reaction and consume the remaining ADP within 40 minutes. At the end, 10 μL of kinase detection reagent was added into the well and incubated for 30 minutes to produce a luminescence signal. Luminescence signal was measured with an automated plate reader (Perkin-Elmer Envision) and each measurement was performed in triplicate.

Q: For `Cc1nc(NC(=O)[C@@H](N)C(C)C)sc1-c1cnc(Cl)c(NS(=O)(=O)c2ccccc2)c1` [PI3KD-IN-015], which “KinomeScan ABL1(E255K)-phosphorylated” value [1] is on record?
A: 77

Q: And the “KinomeScan ABL1(F317I)-phosphorylated” value [2]?
A: 89

Q: What about the “KinomeScan ACVR1” value (ACVR1) of the same compound?
A: 100

Q: What about the “KinomeScan ACVRL1” value (ACVRL1) of the same compound?
A: 100

Q: What about the “KinomeScan CDC2L5” value (CDC2L5) of the same compound?
A: 92

Q: What about the “KinomeScan CSNK1D” value (CSNK1D) of the same compound?
A: 79

Q: What about the “KinomeScan CSNK1E” value (CSNK1E) of the same compound?
A: 100

Q: What about the “KinomeScan DYRK1B” value (DYRK1B) of the same compound?
A: 100

Q: What about the “KinomeScan EGFR(L747-E749del, A750P)” value [3] of the same compound?
A: 100

Q: What about the “KinomeScan EGFR(L861Q)” value (EGFR(L861Q)) of the same compound?
A: 95

Q: And the “KinomeScan EPHA1” value (EPHA1)?
A: 100

Q: And the “KinomeScan EPHA4” value (EPHA4)?
A: 100

Q: What about the “KinomeScan FGFR4” value (FGFR4) of the same compound?
A: 93

Q: And the “KinomeScan FGR” value (FGR)?
A: 100

Q: What about the “KinomeScan FLT3(ITD)” value (FLT3(ITD)) of the same compound?
A: 100

Q: And the “KinomeScan FLT3(K663Q)” value (FLT3(K663Q))?
A: 100

Q: And the “KinomeScan FLT3(N841I)” value (FLT3(N841I))?
A: 87

Q: And the “KinomeScan FLT3-autoinhibited” value (FLT3-autoinhibited)?
A: 100

Q: And the “KinomeScan KIT(D816H)” value (KIT(D816H))?
A: 92

Q: What about the “KinomeScan MAP3K15” value (MAP3K15) of the same compound?
A: 80

Q: And the “KinomeScan MAPKAPK2” value (MAPKAPK2)?
A: 95

Q: What about the “KinomeScan MRCKA” value (MRCKA) of the same compound?
A: 94

Q: And the “KinomeScan MST2” value (MST2)?
A: 87

Q: What about the “KinomeScan MST4” value (MST4) of the same compound?
A: 86

Q: What about the “KinomeScan MYLK4” value (MYLK4) of the same compound?
A: 80

Q: What about the “KinomeScan p38-gamma” value (p38-gamma) of the same compound?
A: 86

Q: What about the “KinomeScan PCTK3” value (PCTK3) of the same compound?
A: 100

Q: What about the “KinomeScan PIK3C2B” value (PIK3C2B) of the same compound?
A: 2.2

Q: What about the “KinomeScan PIK3CA(H1047L)” value (PIK3CA(H1047L)) of the same compound?
A: 0

Q: And the “KinomeScan PIK3CB” value (PIK3CB)?
A: 0

Q: And the “KinomeScan PIK4CB” value (PIK4CB)?
A: 0.8

Q: What about the “KinomeScan PRKR” value (PRKR) of the same compound?
A: 100

Q: And the “KinomeScan PYK2” value (PYK2)?
A: 95

Q: What about the “KinomeScan RSK2(Kin.Dom.2-C-terminal)” value [4] of the same compound?
A: 100

Q: And the “KinomeScan SLK” value (SLK)?
A: 100

Q: And the “KinomeScan TAOK3” value (TAOK3)?
A: 93

Q: And the “KinomeScan TBK1” value (TBK1)?
A: 100

Q: What about the “KinomeScan TRPM6” value (TRPM6) of the same compound?
A: 100

Q: And the “KinomeScan TYK2(JH2domain-pseudokinase)” value [5]?
A: 100

Q: What about the “autophagy induction (LC3B II)” value (LC3B II; HT cells and MEC-1 cells) of the same compound?
A: significantly increased the production of LC3B II

Q: What about the autophagy induction (LC3B II; MOLM-13 cell) of the same compound?
A: no apparent autophagy induction

Q: And the IC50 (PI3Kγ)?
A: 0.125 µM
